In PubChem BioAssay (NCI):
Values joined by “and” are separate entries in the source; they are usually repeats but may differ in a detail not shown here. Equal values may be shown once.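 These data come from cells grown in 96-well plates and exposed to compound for 48 hours at five concentrations. The concentration for 50% growth inhibition is given as GI50. Definition used: TGI = concentration required for complete inhibition of growth.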

Assays:
Assay in all cases: NCI anticancer screen, dose series, 48 h
NCI-H226 lung = system: NCI-H226 lung
HCT-116 colon = system: HCT-116 colon
BT-549 breast = system: BT-549 breast
DU-145 prostate = system: DU-145 prostate
RPMI-8226 leukemia = system: RPMI-8226 leukemia
SNB-19 CNS = system: SNB-19 CNS
MALME-3M melanoma = system: MALME-3M melanoma
HOP-92 NSCLC = system: HOP-92 NSCLC
HOP-62 NSCLC = system: HOP-62 NSCLC
OVCAR-5 ovarian = system: OVCAR-5 ovarian

SMILES | TGI (NCI-H226 lung) | TGI (HCT-116 colon) | TGI (BT-549 breast) | TGI (DU-145 prostate) | TGI (RPMI-8226 leukemia) [µM] | TGI (SNB-19 CNS) | TGI (MALME-3M melanoma) | TGI (HOP-92 NSCLC) | TGI (HOP-62 NSCLC) | TGI (OVCAR-5 ovarian) | GI50 (NCI-H226 lung) | GI50 (HCT-116 colon) | GI50 (BT-549 breast) | GI50 (DU-145 prostate) | GI50 (RPMI-8226 leukemia) [µM] | GI50 (SNB-19 CNS) | GI50 (MALME-3M melanoma) | GI50 (HOP-92 NSCLC) | GI50 (HOP-62 NSCLC) | GI50 (OVCAR-5 ovarian)
C=CCSc1nc2ccccc2c(=O)n1Cc1ccco1 | > 100 µM | > 100 µM | > 100 µM | > 100 µM | > 100 | > 100 µM | > 100 µM | > 100 µM | > 100 µM | > 100 µM |  |  |  |  |  |  |  |  |  | 
O=C1C(Cl)=C(Nc2ccccc2)C(=O)c2ccccc21 | 6.3 µM | 3.53 µM | 3.09 µM | 22 µM | 6.84 | 5.07 µM | 3.72 µM | 2.64 µM | 26.8 µM | 3.65 µM | 2.18 µM | 1.83 µM | 1.7 µM | 9.34 µM | 2.28 | 2.22 µM | 1.92 µM | 1.28 µM | 12.8 µM | 1.94 µM
CCC1=C[C@@H]2CN(C1)Cc1c([nH]c3ccccc13)[C@@](C(=O)OC)(c1cc3c(cc1OC)N(C)[C@H]1[C@@](O)(C(=O)OC)[C@H](OC(C)=O)[C@]4(CC)[C@@H]5C[C@@H]5CN5CC[C@]31[C@@H]54)C2 | 6.57 µM | 5.18 µM and 13 µM | 3.46 µM and 17.5 µM |  | 0.656 | 19.2 µM and 35.1 µM | 1.29 µM | 0.353 µM | 6.94 µM and 16.7 µM | 16.9 µM and 73.9 µM | 0.0191 µM | < 0.005 µM |  | < 0.005 µM | < 0.005 |  | < 0.005 µM | < 0.005 µM | < 0.005 µM | 
OC(CN1CC1)C(O)CN1CC1 (centres undefined) | > 50 µg/mL | > 50 µg/mL | > 50 µg/mL | > 50 µg/mL |  | > 50 µg/mL | > 50 µg/mL | > 50 µg/mL | > 50 µg/mL | > 50 µg/mL | > 50 µg/mL | > 50 µg/mL | > 50 µg/mL | > 50 µg/mL |  | > 50 µg/mL | > 50 µg/mL | > 50 µg/mL | > 50 µg/mL | > 50 µg/mL
NC(=O)c1cccc(Nc2nccc(Nc3cccc(F)c3)n2)c1 | > 21.7 µM | > 25 µM | > 25 µM | > 25 µM | > 25 | > 25 µM | > 25 µM | 18.1 µM | > 22.5 µM | > 25 µM | 4.74 µM | 9.1 µM | 10.3 µM | 8.1 µM | 11.4 | 18.6 µM | 10.3 µM | 2.66 µM | 8.24 µM | 8.07 µM
CCCCCCCCCCN=C(c1ccc(N(C)C)cc1)c1ccc(N(C)C)cc1 | > 81.3 µM | 32.9 µM | 52.9 µM | > 83 µM | 16.3 | > 76 µM | 65.8 µM | 26.5 µM | 31.8 µM | > 100 µM | 10.8 µM | 0.423 µM | 0.857 µM | 2.42 µM | 0.673 | 1.06 µM | 16.6 µM | 1.92 µM | 1.06 µM | 7.65 µM
CN(C)Cc1c[nH]c2c(NCCN)c3c(c(NCCN)c12)C(=O)c1ccccc1C3=O | 5.35 µM | 5.29 µM | 9.87 µM | 18.7 µM | 6.52 | 23 µM | 18.7 µM | 5.49 µM | 6.39 µM | 25.1 µM | 1.56 µM | 0.625 µM | 3.52 µM | 5.55 µM | 1.43 | 6.52 µM | 3.99 µM | 1.53 µM | 1.31 µM | 5.68 µM
CC(=O)N[C@H](C(=O)N[C@@H](CCCNC(=N)N)C(=O)N[C@@H](CCCCN)C(=O)N[C@@H](CCCNC(=N)N)C(=O)N[C@]1(C)CCCCCC/C=C\CCC[C@@](C)(C(=O)N[C@@H](CCCNC(=N)N)C(=O)N[C@@H](CCC(=O)O)C(=O)N[C@@H](CC(C)C)C(=O)N[C@H](C(=O)N[C@@H](CCC(=O)O)C(N)=O)C(C)C)NC(=O)[C@H](CCC(N)=O)NC(=O)[C@H](CC(C)C)NC(=O)[C@H](CC(C)C)NC(=O)[C@H](CCCNC(=N)N)NC(=O)[C@H](CCCNC(=N)N)NC(=O)[C@H](CC(C)C)NC1=O)C(C)C | 28.7 µM | 37.6 µM | 4.35 µM | 7.44 µM | 20.9 | > 50 µM | 2.72 µM | 8.43 µM | 22.5 µM | 41.2 µM | 2.43 µM | 12 µM | 1.44 µM | 1.87 µM | 6.48 | 10.3 µM | 1.19 µM | 1.73 µM | 2.35 µM | 11.5 µM
CCCCCCCCCCCCCCCCCCNC(=O)[C@H]1CSC(c2cccs2)N1 (some centres undefined) | 2.01 µM | 1.8 µM | 1.89 µM | > 50 µM | 2.41 | > 50 µM | 2.01 µM | 14.2 µM | 1.71 µM | 2.57 µM | 1.05 µM | 0.945 µM | 0.983 µM | 2.91 µM | 0.985 | 3.6 µM | 0.988 µM | 2.38 µM | 0.959 µM | 1.17 µM
COCCOCCOCc1n(Cc2ccc3ccccc3n2)c2ccccc2[n+]1Cc1ccc2ccccc2c1 | 4.83 µM | 2.06 µM | 0.977 µM | 12.6 µM | 1.33 | 1.62 µM | 0.9 µM | 0.718 µM | 2.52 µM | 7.43 µM | 0.875 µM | 0.402 µM | 0.277 µM | 0.593 µM | 0.185 | 0.441 µM | 0.275 µM | 0.207 µM | 0.468 µM | 0.557 µM
CC1(C)N=C(N)N=C(N)N1c1ccc(OCC(=O)Nc2ccccc2)c(Cl)c1 | > 100 µM | > 100 µM | > 100 µM | > 100 µM | > 100 | > 100 µM | > 100 µM | > 100 µM | > 100 µM | > 100 µM | > 71.6 µM | 0.502 µM | 22.3 µM | 1.15 µM | 9.89 | 28.8 µM | > 71.4 µM | 68.9 µM | 5.77 µM | > 100 µM
C=C1CC2(OC1=O)C(=O)N(CCCN1C(=O)C3(CC(=C)C(=O)O3)c3ccccc31)c1ccccc12 (centres undefined) | 6.64 µM | 3.75 µM | 9.65 µM | 3.52 µM | 2.78 | 26.2 µM | 3.21 µM | 2.76 µM | 21.8 µM | 4.55 µM | 2.01 µM | 1.84 µM | 2.69 µM | 1.73 µM | 0.579 | 13.3 µM | 1.7 µM | 1.33 µM | 7.34 µM | 2.07 µM
